Laboratory results as given in patent US20240300902A1, “NOVEL TRANSGLUTAMINASE 2 INHIBITOR AND USE THEREOF” (MD BIOLAB CO., LTD., priority 2021, published 2024).

Tests used:
[1] = target: T1, guinea pig liver-originated transglutaminase 2 (Cavia cutleri, UniProt P08587); experiment: In vitro transglutaminase 2 assay (1), [1,4-14C] putrescine incorporation into succinylated casein; assay type: biochemical
T1 construct: 1 mU of guinea pig liver-originated transglutaminase 2 (Sigma, St. Louis, MO, USA); purchased Sigma; host or cells: guinea pig liver
T1 sequence (P08587 1-690): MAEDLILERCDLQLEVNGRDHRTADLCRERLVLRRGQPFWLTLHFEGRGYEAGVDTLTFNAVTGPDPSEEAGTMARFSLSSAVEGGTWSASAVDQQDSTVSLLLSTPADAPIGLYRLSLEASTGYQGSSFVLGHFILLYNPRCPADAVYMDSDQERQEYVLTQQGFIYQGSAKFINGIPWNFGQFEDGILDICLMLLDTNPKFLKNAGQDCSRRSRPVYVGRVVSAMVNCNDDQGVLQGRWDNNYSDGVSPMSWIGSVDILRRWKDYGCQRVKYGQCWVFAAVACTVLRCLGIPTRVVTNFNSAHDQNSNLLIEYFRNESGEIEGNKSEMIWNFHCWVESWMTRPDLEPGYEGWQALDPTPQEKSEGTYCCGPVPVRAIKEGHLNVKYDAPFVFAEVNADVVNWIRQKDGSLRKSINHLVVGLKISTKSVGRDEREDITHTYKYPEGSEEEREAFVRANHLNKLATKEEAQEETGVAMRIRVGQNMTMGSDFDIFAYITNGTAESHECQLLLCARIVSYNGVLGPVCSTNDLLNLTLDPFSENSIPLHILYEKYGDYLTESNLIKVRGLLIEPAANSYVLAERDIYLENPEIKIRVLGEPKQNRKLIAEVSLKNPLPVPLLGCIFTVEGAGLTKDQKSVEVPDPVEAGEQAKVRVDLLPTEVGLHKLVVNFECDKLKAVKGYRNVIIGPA
Procedure: Incorporation of [1,4-14C] putrescine into succinylated casein was measured to determine the inhibitory effect of each compound on the activity of transglutaminase 2 (TGase 2). 1 mU of guinea pig liver-originated transglutaminase 2 (Sigma, St. Louis, MO, USA) was preincubated with various concentrations of GK13 or GK921 in a 0.1 mL reaction buffer with or without 10 mM CaCl2 for 10 minutes, and 0.4 mL of a substrate solution containing 2% (w/v) succinylated casein and 100 nCi of [1,4-14C] putrescine. After incubation at 37° C. for 1 hour, 4 mL of cold (4° C.) 7.5% (w/v) trichloroacetic acid (TCA) was added to terminate the reaction. The TCA-insoluble precipitate was recovered with a GF/A-grade glass filter (Millipore, Billerica, MA, USA), washed with cold 5% (w/v) TCA, dried, and assessed with a scintillation counter (Beckman Coulter, Brea, CA, USA) to evaluate radiolabel binding. Transglutaminase 2 which was pre-incubated only with a buffer was used as a positive control. The scintillation counts were compared between the example and the positive control, and IC50 values were determined through the logistic linear regression method. The presented data were the mean values of three independent experiments. In this experimental example and the following experimental example, Streptonigrin (described as KN383 in each figure of the drawing), which is an existing transglutaminase 2 inhibitor, was used as a positive control.

a total of 8 tumors = experiment: OncoPanel assay conducted by Eurofins; assay type: cell-based
Procedure: The OncoPanel™ assay conducted by Eurofins confirmed the antitumor efficacy of LDD3959 in a total of 8 tumors at concentrations of 10 μM or lower.

renal cancer cell lines = experiment: Cell viability in various renal cancer cell lines (water soluble tetrazolium salt); assay type: cell-based; details: various concentrations, 48 hours
Procedure: Cells (20,000 cells/well, 100 μl) were incubated in a 96-well microplate. After 24 hours of the incubation, LDD3959 […] were added to each well in various concentrations by using a serum-free cell culture medium, and the cells were cultured at 37° C. in the presence of 5% CO2 for 2 hours. Next, the existing culture medium was replaced with a culture medium containing 10% FBS, and then incubation was carried out again for 48 hours. The existing culture medium was removed, and a new culture medium containing a water soluble tetrazolium salt was added. After that, the plate was incubated at 37° C. in the presence of 5% CO2 for a duration in the range of 1 hour to 3 hours, and then absorbance was measured at 450 nm.

[2] = tested on: ACHN cancer cell population; experiment: Sulforhodamine B (SRB) assay; assay type: cell-based, Human
Procedure: Cells (10,000 cells/well, 100 μL) were incubated in a 96-well microtiter plate. After 24 hours of the incubation, drug (100 μL) was added to each of the wells, and the culture was further incubated at 37° C. for 48 hours. The cells were then fixed in TCA (50 μL per well). The plates were incubated at 4° C. for a minimum of 1 hour or a maximum of 3 hours. The liquid was removed from the plates, and then the plate was washed five times with water and then dried at room temperature (RT) for about 12-24 hours. The fixed cells were stained with 100 μL SRB for 5 minutes at room temperature. After the staining, the plate was washed three times with 1% (w/v) glacial acetic acid and dried at room temperature for about 12-24 hours. Next, the SRB was then dissolved in 10 mM Trizma base, and the absorbance was measured at 515 nm. The effect of the drug was expressed as GI50 (50% growth inhibition).
Specifically, each of the LDD3732, LDD3922, and LDD3959 in concentrations of 10^−9, 10^−8, 10^−7, 10^−6, and 10^−5 M were tested, and the percentage decrease in the control value of SRB was measured using an ACHN cancer cell population.

p53 = experiment: P53 rescue test using western blotting; assay type: cell-based; details: low to high concentration, cancer cell lines
Procedure: Whole cell lysates were prepared using a radioimmunoprecipitation assay (RIPA) buffer (150 mM sodium chloride, 1.0% (w/v) IGEPAL® CA-630 (NP-40), 0.5% (w/v) sodium deoxycholate, 0.1% (w/v) sodium dodecyl sulfate (SDS), a protease inhibitor cocktail, and 50 mM Tris-HCl (pH 8.0) containing a phosphatase inhibitor cocktail. Protein assays were performed through Bradford protein assay (Thermo Scientific, Waltham, MA, USA) to normalize protein expression. The proteins were resolved by SDS-PAGE and transferred to polyvinylidene difluoride (PVDF) membranes (Merck Millipore, Burlington, MA, USA). The membranes were blocked with 5% (w/v) BSA for 1 hour at room temperature and incubated overnight at 4° C. with labeled antibodies. Membranes were washed in TBS-T for 1 hour at room temperature and incubated together with a horseradish peroxidase (HRP)-bound secondary antibody for 1 hour at room temperature. Finally, the membranes were washed in TBS-T for 1 hour at room temperature and developed with enhanced chemiluminescence.

O=C1C(Cl)=C(Cl)C(=O)c2[nH]c(-c3ccc(Br)c(F)c3)nc21 [LDD3959, 2-(4-bromo-3-fluorophenyl)-5,6-dichloro-1H-benzo[d]imidazole-4,7-dione]
mean value of the 2 μM LDD3959 ([1]; 2 μM, negative control 248.5, control 3606.5, standard deviation 0.01): 0.09
TGase2 enzyme activity inhibitory effect compared with streptonigrin (KN383, positive control) ([1]; same dose (2 μM)): two-fold or greater stronger TGase2 enzyme activity inhibitory effects than the control
concentration with antitumor efficacy (a total of 8 tumors): ≤ 10 µM
cell viability in renal cancer cells (renal cancer cell lines): cancer cells in a variety of renal cancer cells were killed
GI50 ([2]; Homo sapiens, 48 hours, read-out: GI50 (50% growth inhibition)): 2.5 µM
SRB measurement (percentage decrease in the control value of SRB) ([2]; concentration of 10^−5 M, 48 hours): −11.87
decrease in cell counts ([2]; concentrations 10^−6 M or lower): no significant decrease in cell counts
p53 rescue effect (Western blot band of p53) (p53): dose-dependent p53 rescue effects
